In ChEMBL document CHEMBL1134984, “Anticancer activity for 4,4'-dihydroxybenzophenone-2,4-dinitrophenylhydrazone (A-007) analogues and their abilities to interact with lymphoendothelial cell surface markers” (Bioorg Med Chem Lett, 2002):
In brackets after ≈: the same amount, converted by molar mass. Activity calls are given as the source filed them. The rule behind the calls is not given here.

Assays:
[1] = system: T-cell; assay: Cytotoxicity in HH T-lymphocytic leukemia cells; type: functional, cell-based; details: Homo sapiens
[2] = target: T-cell surface glycoprotein CD4 (Homo sapiens) (UniProt P01730); assay: Binding Intensity against CD4+ HH-leukemic cells at 5 ug/mL.; type: cell-based
[3] = target: T1, Receptor-type tyrosine-protein phosphatase C (Homo sapiens) (UniProt P08575); assay: Binding Intensity against CD45+ HH-leukemic cells at 5 ug/mL; type: cell-based
T1 sequence (whole entry): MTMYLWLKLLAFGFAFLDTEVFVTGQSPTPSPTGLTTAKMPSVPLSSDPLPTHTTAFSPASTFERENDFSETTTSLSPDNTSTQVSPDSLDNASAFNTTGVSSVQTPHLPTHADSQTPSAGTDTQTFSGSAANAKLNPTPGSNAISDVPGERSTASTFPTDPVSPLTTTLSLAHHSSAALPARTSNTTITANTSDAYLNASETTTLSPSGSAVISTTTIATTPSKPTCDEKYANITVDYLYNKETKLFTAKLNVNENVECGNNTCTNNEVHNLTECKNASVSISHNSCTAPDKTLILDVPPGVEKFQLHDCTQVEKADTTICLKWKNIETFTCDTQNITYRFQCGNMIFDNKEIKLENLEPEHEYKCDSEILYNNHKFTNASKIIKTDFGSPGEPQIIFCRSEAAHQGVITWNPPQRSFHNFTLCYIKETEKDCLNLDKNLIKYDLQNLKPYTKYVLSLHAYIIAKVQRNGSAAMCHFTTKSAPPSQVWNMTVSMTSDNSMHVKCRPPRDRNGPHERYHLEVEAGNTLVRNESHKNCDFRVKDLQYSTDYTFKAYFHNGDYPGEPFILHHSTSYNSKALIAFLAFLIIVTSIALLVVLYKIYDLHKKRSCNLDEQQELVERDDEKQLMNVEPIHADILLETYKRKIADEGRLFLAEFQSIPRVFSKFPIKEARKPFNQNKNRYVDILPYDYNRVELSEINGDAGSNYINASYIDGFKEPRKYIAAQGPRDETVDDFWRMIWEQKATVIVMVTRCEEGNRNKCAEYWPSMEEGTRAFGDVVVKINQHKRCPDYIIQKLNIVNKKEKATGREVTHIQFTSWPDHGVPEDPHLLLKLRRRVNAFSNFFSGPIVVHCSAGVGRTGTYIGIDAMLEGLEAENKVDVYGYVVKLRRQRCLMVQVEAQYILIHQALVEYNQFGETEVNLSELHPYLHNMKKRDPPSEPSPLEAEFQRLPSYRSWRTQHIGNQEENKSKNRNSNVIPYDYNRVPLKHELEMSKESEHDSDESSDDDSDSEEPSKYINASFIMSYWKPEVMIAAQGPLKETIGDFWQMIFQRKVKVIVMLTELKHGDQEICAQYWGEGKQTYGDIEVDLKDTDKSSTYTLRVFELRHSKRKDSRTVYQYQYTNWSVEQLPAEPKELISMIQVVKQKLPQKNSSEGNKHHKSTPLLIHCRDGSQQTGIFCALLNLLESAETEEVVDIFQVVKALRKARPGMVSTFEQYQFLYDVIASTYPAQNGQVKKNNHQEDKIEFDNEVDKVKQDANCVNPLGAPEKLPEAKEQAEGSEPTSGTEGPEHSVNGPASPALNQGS

[4] = system: HH-leukemic; assay: Binding Intensity against CD11C+ HH-leukemic cells at 5 ug/mL.; type: cell-based; details: Homo sapiens
[5] = target: T1, Receptor-type tyrosine-protein phosphatase C (Homo sapiens); assay: Binding Intensity was determined against CD45+ HH-leukemic cells at 5 ug/mL; No change; type: cell-based
[6] = system: HH-leukemic; assay: Binding Intensity against CD11C+ HH-leukemic cells at 5 ug/mL; type: cell-based; details: Homo sapiens
[7] = target: T-cell surface glycoprotein CD4 (Homo sapiens) (UniProt P01730); assay: Binding Intensity against CD4+ HH-leukemic cells at 5 ug/mL; type: cell-based

SMILES | IC50 [1] [µg/mL] | Binding intensity [2] | Binding intensity [3] [%] | Binding intensity [4] | Binding intensity [5] | Binding intensity [6] [%] | Binding intensity [7] [%]
Nc1ccc(C(=NNc2ccc([N+](=O)[O-])cc2[N+](=O)[O-])c2ccc(N)cc2)cc1 | 5 (≈ 12.7 µM) | No change | 25 | No change | – | – | –
O=[N+]([O-])c1ccc(N/N=C/c2ccc(O)cc2)cc1 | 5 (≈ 19.4 µM) | – | – | – | inactive | – | –
O=C1NC(=O)C(/C(=N\Nc2ccc([N+](=O)[O-])cc2[N+](=O)[O-])c2ccccc2)C(=O)N1 | > 10 | No change | – | No change | inactive | – | –
Cl.O=C1N=C2C(=Nc3ccccc32)N1c1ccc(O)cc1 | > 10 | No change | – | No change | inactive | – | –
C/C(=N\Nc1ccc([N+](=O)[O-])cc1)c1ccc(O)cc1 | 4.1 (≈ 15.1 µM) | – | – | – | inactive | – | –
O=C(O)CC/N=C/C1C(=O)NC(=O)NC1=O | > 12 | No change | – | No change | inactive | – | –
O=[N+]([O-])c1ccc(NN=C(c2ccc(O)cc2)c2ccc(O)cc2)c([N+](=O)[O-])c1 [SIVIFENE] | 3.2 (≈ 8.11 µM) | No change | 50 | – | – | 20 | –
CS(=O)(=O)Oc1ccc(C(=NNc2ccc([N+](=O)[O-])cc2[N+](=O)[O-])c2ccc(OS(C)(=O)=O)cc2)cc1 | > 10 | No change | – | No change | inactive | – | –
O=[N+]([O-])c1ccc(NN=C(c2ccc(OP(=O)(O)O)cc2)c2ccc(OP(=O)(O)O)cc2)c([N+](=O)[O-])c1 | > 10 | No change | – | No change | inactive | – | –
O=C(O)CCCCC/N=C/C1C(=O)NC(=O)NC1=O | > 10 | No change | – | No change | inactive | – | –
CN1C(=O)C(C(c2ccnc3ccccc23)C2C(=O)N(C)C(=O)N(C)C2=O)C(=O)N(C)C1=O | > 10 | – | – | – | – | – | –
O=[N+]([O-])c1cc([N+](=O)[O-])c(NN=C(c2ccc(O)cc2)c2ccc(O)cc2)cc1Cl | 1.5 (≈ 3.5 µM) | No change | – | No change | inactive | – | –
C/C(=N/Nc1ccc([N+](=O)[O-])cc1[N+](=O)[O-])C1C(=O)N(C)C(=O)N(C)C1=O | 10 (≈ 26.4 µM) | – | – | No change | – | – | –
O=C1NC(=O)C(/C(=N\Nc2ccc([N+](=O)[O-])cc2[N+](=O)[O-])c2ccc(O)cc2)C(=O)N1 | > 10 | No change | – | No change | inactive | – | –
O=C1NC(=O)C(C2(C3C(=O)NC(=O)NC3=O)C(=O)Nc3ccccc32)C(=O)N1 | > 10 | No change | – | No change | inactive | – | –
C/C(=N/Nc1ccc([N+](=O)[O-])cc1[N+](=O)[O-])C1C(=O)NC(=O)NC1=O | 3.5 (≈ 9.99 µM) | No change | – | No change | inactive | – | –
COc1ccc(C(=NNc2ccc([N+](=O)[O-])cc2[N+](=O)[O-])c2ccc(OC)cc2)cc1 | > 10 | – | – | – | inactive | 25 | 25
O=[N+]([O-])c1ccccc1NN=C(c1ccc(O)cc1)c1ccc(O)cc1 | 2.7 (≈ 7.73 µM) | No change | – | No change | inactive | – | –
O=C(O)CCC/N=C(\c1ccccc1)C1C(=O)NC(=O)NC1=O | > 10 | No change | – | No change | inactive | – | –
O=[N+]([O-])c1ccc(NN=C(c2ccc(NS(=O)(=O)c3ccccc3)cc2)c2ccc(NS(=O)(=O)c3ccccc3)cc2)c([N+](=O)[O-])c1 | 6 (≈ 8.92 µM) | – | – | – | – | – | –
CN1C(=O)C(/C=N\Nc2ccc([N+](=O)[O-])cc2[N+](=O)[O-])C(=O)N(C)C1=O | > 8 | – | – | – | – | – | –
O=C(O)CCC/N=C/C1C(=O)NC(=O)NC1=O | 3.5 (≈ 14.5 µM) | No change | 25 | No change | – | – | –
O=C1NC(=O)C(C(c2ccnc3ccccc23)C2C(=O)NC(=O)NC2=O)C(=O)N1 | > 10 | No change | 25 | No change | – | – | –
C/C(=N/Nc1ccc([N+](=O)[O-])cc1)C1C(=O)NC(=O)NC1=O | > 10 | No change | – | No change | inactive | – | –
O=[N+]([O-])c1ccc(NN=C(c2ccccc2)c2ccccc2)c([N+](=O)[O-])c1 | > 10 | No change | – | No change | inactive | – | –
CN1C(=O)C(C2(C3C(=O)N(C)C(=O)N(C)C3=O)C(=O)Nc3ccccc32)C(=O)N(C)C1=O | > 10 | No change | – | No change | inactive | – | –
O=C1NC(=O)C(/C=N\Nc2ccc([N+](=O)[O-])cc2)C(=O)N1 | > 6 | No change | – | No change | inactive | – | –
O=C1NC(=O)C(C(c2cccnc2)C2C(=O)NC(=O)NC2=O)C(=O)N1 | > 10 | – | – | – | – | – | –
